Experimental data reported in patent US20070197562A1, “Remedies for prostatic hypertrophy” (Yokohama TLO Company, Ltd., priority 2004, published 2007).

Assays:
PC-3 tumor grafts = experiment: In vivo effect on PC-3 tumor grafts transplanted on mice; conditions: PC-3 cells transplanted; CV 5 or 10 mg/kg/day orally in drinking water, first to fifth week; male nude mice
Description: The in vivo effect of the AIIR blocker was examined using the PC-3 human prostatic cancer cells with less expression of AT1 receptors (obtained from American Type Culture Collection, Rockville, Md., USA), and PrSC cells. PC-3 cells (5×10^6 cells) or a mixture of PC-3 and PrSC cells (2.5×10^6 cells each; a total of 5×10^6 cells) were injected subcutaneously in the back of male nude mice of 4 weeks old for forming tumors. Tumors having a diameter of about 5 mm were formed after one week. The above-described mice were divided into three groups: CV (5 mg/kg/day) administered group, CV (10 mg/kg/day) administered group, and non-administered group (Control) (n=4 for each group). The administered groups were orally administered with a specified dose of CV dissolved in drinking water every day from the first to the fifth week after the tumorigenic injection. The size of the tumor (heterograft) on each mouse was measured every week, and the volume was calculated using the formula: major axis×minor axis×minor axis/2. The volume was expressed as relative ratio to the volume in the first week as being 1. The results are shown in FIGS. 8 (PC-3 cells were transplanted) and 9 (a mixture of PC-3 and PrSC cells was transplanted).

F-1 cells = experiment: IL-6 secretion by primary-cultured F-1 cells (CLEIA); format: cell-based, human; conditions: AII (10 μM)+CV 10 μM; 24 hours; P<0.03 vs AII (10 μM)
Description: The primary-cultured stromal cells (F-1 cells) derived from a patient with prostatic hypertrophy were prepared as described below.
Tissues obtained from the patient were placed in a 50 mL centrifuge tube containing 20 mL of a medium (RPMI 1640, GIBCO 11835-030) supplemented with 10% (V/V) FBS (filtron) and mg/mL penicillin/streptomycin (GIBCO 15140-122), and allowed to stand at 4° C. for 1 hour or longer. Subsequently, the tissues were placed in a 10-cm dish, and cut into pieces of about 1 mm square. Blood vessels and the like were removed. At that time, to remove excessive blood (if necessary), the tissues were washed by adding 20 mL of the medium and centrifuging the mixture for 5 minutes at 1,000 rpm, followed by aspiration of the supernatant. […]
PrSC cells prepared in the same manner as Example 1, or F-1 or FT-FB cells prepared as described above were placed in a 6-well dish at 10^5 cells per well, cultured at 5% CO2 and 37° C. for 1 day (24 hours), and stimulated by the addition of TGFβ (1 ng/mL), TNFα (1 ng/mL), EGF (2.5 or 10 ng/mL), or angiotensin II (1 μM or 10 μM) (n=3). […] The culture media were collected 24 hours after adding the reagents, and the concentrations of IL-6 were determined by the CLEIA method.

[1] = tested on: MAPK phosphorylation in PrSC cells; experiment: MAPK phosphorylation in PrSC cells (Western blotting); format: cell-based, human
Description: Stromal cells (PrSC) were cultured for 24 hours in a phenol red-free F12 medium containing 0.1% (W/V) BSA, to which angiotensin II (10 μM) or TNFα (1 ng/mL) was added each alone or in combination with either CV (10 μM) or losartan (“Los”; 10 μM) by replacing the medium. The cells were collected 10 minutes after the addition, and the total cellular proteins were extracted in the same manner as described in Example 10. Similarly, the cells cultured with no additive and the cells added with either CV or Los alone were processed in parallel. 3,000,000 PrSC cells were used for each sample.
These samples were subjected to Western blotting in the same manner as described in Example 10.

[2] = tested on: MAPK phosphorylation in PC-3 cells; experiment: MAPK phosphorylation in PC-3 cells cultured in PrSC conditioned media (Western blotting); format: cell-based, human; conditions: 10% FCS-CM from PrSC with AIIR blocker 10 μM, no angiotensin II; lanes 5 and 6 vs lane 4; 10 minutes
Description: Stromal cells (PrSC) were cultured in a phenol red-free F12 medium containing 0.1% (W/V) BSA, to which angiotensin II (10 μM) was added alone or in combination with losartan (“Los”; 10 μM). The culture medium was collected 24 hours after the addition, and used as a conditioned medium (“0.1% BSA-CM”).
Stromal cells (PrSC) were cultured in a phenol red-free F12 medium containing 10% (V/V) FCS, to which CV (10 μM) or losartan (10 μM) was added. The culture medium was collected 24 hours after the addition, and used as a conditioned medium (“10% FCS-CM”) with no addition of angiotensin II. 10% FCS-CM with no additive was also prepared in the same manner.
3,000,000 PrSC cells were used for each of the above 10-1 and 10-2
PC3 cells (prostate cancer cells) were cultured for 24 hours in a phenol red-free F12 medium supplemented with 0.1% (W/V) BSA. Then the medium was replaced with one of the conditioned media prepared as described above, and the cells were collected 10 minutes later. Total cellular proteins were extracted as described below. Similar protocol was done in parallel for PC-3 cells without using any conditioned medium (“Control”).
The cells were washed twice with an ice-cold phosphate buffer (PBS), and lysed in 200 μL of an ice-cold cell lysis solution (lysis buffer; 20 mM of Tris (pH8.0), 137 mM of NaCl, 10% of glycerol, 0.1% of SDS, 0.5% of Nonidet P-40 (trade name), 100 mM of sodium fluoride, […] of sodium orthovanadate, 1 mM of EGTA, 2 mM of phenylmethylsulfonyl fluoride, […] of leupeptin, and […] of aprotinin). The mixture was centrifuged. Subsequently, the supernatant was collected.
The resulting protein sample was subjected to SDS-PAGE in the routine manner, and the MAPK phosphorylation was determined by Western blotting using an anti-phospho-MAP kinase antibody or an anti-MAP kinase antibody) (both were purchased from Cell Signaling Technology (Beverly, Mass.)) as the detecting antibody.
From the obtained results, the expression levels of pMAPK and MAPK bands were determined using NIH image software. On the basis of the results, the pMAPK/MAPK ratio in each lane was calculated, and then the ratio (“pMAPK ratio”) of the obtained value of each lane to that of the lane 1 (“Control”) was calculated by taking the value of Control as 1.

For `CCOc1nc2cccc(C(=O)OC(C)OC(=O)OC3CCCCC3)c2n1Cc1ccc(-c2ccccc2-c2nnn[nH]2)cc1` (stereo not drawn) [CV, 1-(cyclohexyloxycarbonyloxy)ethyl 2-ethoxy-1-[[2′-(1H-tetrazole-5-yl)biphenyl-4-yl]methyl]-1H-benzimidazole-7-carboxylate], the “proliferation (relative tumor volume) vs Control” value (PC-3 tumor grafts) was “suppression of proliferation was observed for the CV administered groups as compared to “Control”, but the effect was not so remarkable”, the IL-6 secretion (F-1 cells) was “significantly suppressed” and the “MAPK phosphorylation in PrSC cells” value ([1]; AIIR blocker 10 μM added alone, lanes 8 and 9) was “not caused”. For the same compound, the “MAPK phosphorylation in PrSC cells” value ([1]; TNFα (1 ng/mL) in combination with AIIR blocker 10 μM, lanes 6 and 7, 10 minutes) was “suppressed”, the “MAPK phosphorylation in PrSC cells” value ([1]; angiotensin II (10 μM) in combination with AIIR blocker 10 μM, lanes 3 and 4, 10 minutes) was “suppressed” and the “MAPK phosphorylation in PC-3 cells” value [2] was “suppressed”.
